For the assay, the target named is T1, 14-3-3σ (Homo sapiens, UniProt P31947).
T1 construct: gene SFN; with ERα phospho-peptide (588AEGFPApTV595 in the crystal)
T1 sequence (P31947 1-248): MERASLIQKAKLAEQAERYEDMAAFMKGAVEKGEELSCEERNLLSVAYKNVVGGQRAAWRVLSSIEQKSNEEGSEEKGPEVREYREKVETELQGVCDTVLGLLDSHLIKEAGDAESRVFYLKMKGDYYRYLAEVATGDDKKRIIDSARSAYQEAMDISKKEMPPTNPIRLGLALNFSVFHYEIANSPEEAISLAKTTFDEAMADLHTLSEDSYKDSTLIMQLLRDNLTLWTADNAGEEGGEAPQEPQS
Briefly: crystal structure with ERα phospho-peptide and […]; FP dose-response and ITC stabilisation. Type of assay: binding.

The structures appear in SMILES notation.

By EC50 is commonly meant the midpoint of the concentration-response curve. High values mean lower potency in that assay, low ones higher potency in that assay. In the case of `C=CC(C)(C)OC[C@H]1O[C@H](O[C@@H]2C3=C([C@H](C)COC(C)=O)C[C@H](O)[C@]3(C)/C=C3/[C@@H](COC)CC[C@H]3[C@@H](C)[C@H]2O)[C@H](O)[C@@H](OC(C)=O)[C@@H]1O` [compound 1, fusicoccin A], a half-maximal response (EC50) required 880 nM. In other words, the sub-micromolar range.

The record behind these values is PMC8513901, “Cooperative stabilisation of 14-3-3σ protein–protein interactions via covalent protein modification” (Chemical Science, 2021).
